Data reported in patent US6727066B2, “Genes expressed in treated human C3A liver cell cultures” (Incyte Corporation, priority 2000, dated 2004).

Experiments:
[1] = cited from earlier work
[2] = system: human C3A liver cell cultures; test: Microarray differential expression of cDNAs in treated human C3A liver cell cultures; type: cell-based; settings: change vs untreated C3A cells

Structure (SMILES): CCOC(=O)[C@H](CCc1ccccc1)N[C@@H](C)C(=O)N1CCC[C@H]1C(=O)O [Enalapril]
- time of peak plasma concentration ([1]; enalapril given orally): within an hour
- oral bioavailability ([1]; given orally, not reduced by food): about 60%
- half-life ([1]; in vivo): 1.3 h
- expression level of cDNA clone 63038 [2]: −2.97
- expression level of cDNA clone 118501 [2]: 6.06
- expression level of cDNA clone 160822 [2]: 2.39
- expression level of cDNA clone 279898 [2]: 4.08
- expression level of cDNA clone 630625 [2]: 2.51
- expression level of cDNA clone 1308112 [2]: 2.14
- expression level of cDNA clone 1368834 [2]: 2.43
- expression level of cDNA clone 1379063 [2]: −2.44
- expression level of cDNA clone 1448718 [2]: −3.91
- expression level of cDNA clone 1696224 [2]: 3.97
- expression level of cDNA clone 1711151 [2]: 2.48
- expression level of cDNA clone 1861456 [2]: −2.51
- expression level of cDNA clone 1930235 [2]: 3
- expression level of cDNA clone 1975268 [2]: −2.75
- expression level of cDNA clone 1998269 [2]: 2.27
- expression level of cDNA clone 2055569 [2]: −3.1
- expression level of cDNA clone 2123516 [2]: 3.71
- expression level of cDNA clone 2513883 [2]: 3.82
- expression level of cDNA clone 2757583 [2]: 4.13
- expression level of cDNA clone 2884613 [2]: 2.51
- expression level of cDNA clone 2921991 [2]: −4.67
- expression level of cDNA clone 2933775 [2]: 4.73
- expression level of cDNA clone 2955163 [2]: 2.33
- expression level of cDNA clone 4556538 [2]: 3.02

Structure (SMILES): CC(C)OC(=O)C(C)(C)Oc1ccc(C(=O)c2ccc(Cl)cc2)cc1 [Fenofibrate, fenofibrate]
- expression level of cDNA clone 63038 [2]: −2.9
- expression level of cDNA clone 280932 [2]: −2.67
- expression level of cDNA clone 437481 [2]: 2.44
- expression level of cDNA clone 443991 [2]: 2.47
- expression level of cDNA clone 450856 [2]: 2.49
- expression level of cDNA clone 452321 [2]: 3
- expression level of cDNA clone 480791 [2]: −2.27
- expression level of cDNA clone 630625 [2]: 3.95
- expression level of cDNA clone 970905 [2]: −4.06
- expression level of cDNA clone 1315663 [2]: −4.02
- expression level of cDNA clone 1619292 [2]: −5
- expression level of cDNA clone 1705208 [2]: 2.83
- expression level of cDNA clone 1846463 [2]: 6.58
- expression level of cDNA clone 1969563 [2]: 6.8
- expression level of cDNA clone 1975268 [2]: −2.42
- expression level of cDNA clone 2042056 [2]: 5.46
- expression level of cDNA clone 2055569 [2]: −3.12
- expression level of cDNA clone 2055867 [2]: −3.4
- expression level of cDNA clone 2123516 [2]: 4.6
- expression level of cDNA clone 2234853 [2]: −2.7
- expression level of cDNA clone 2360580 [2]: −4.5
- expression level of cDNA clone 2382195 [2]: −2.87
- expression level of cDNA clone 2399162 [2]: −2.5
- expression level of cDNA clone 2448149 [2]: −2.35
- expression level of cDNA clone 2513883 [2]: 4.47
- expression level of cDNA clone 2607921 [2]: −3.2
- expression level of cDNA clone 2757583 [2]: 4.75
- expression level of cDNA clone 2769888 [2]: −3.17
- expression level of cDNA clone 2929484 [2]: −2.89
- expression level of cDNA clone 2957205 [2]: 2.44
- expression level of cDNA clone 3222802 [2]: 2.55
- expression level of cDNA clone 3272165 [2]: −2.57
- expression level of cDNA clone 4287327 [2]: −3.14
- expression level of cDNA clone 4556538 [2]: 2.53

Structure (SMILES): C[C@H](CS)C(=O)N1CCC[C@H]1C(=O)O [Captopril]
- expression level of cDNA clone 63038 [2]: −3.16
- expression level of cDNA clone 118501 [2]: 4.36
- expression level of cDNA clone 160822 [2]: 2.5
- expression level of cDNA clone 211389 [2]: −2.52
- expression level of cDNA clone 630625 [2]: 2.81
- expression level of cDNA clone 1315663 [2]: −2.84
- expression level of cDNA clone 1368834 [2]: 2.47
- expression level of cDNA clone 1379063 [2]: −4
- expression level of cDNA clone 1381654 [2]: 1.57
- expression level of cDNA clone 1448718 [2]: −3.93
- expression level of cDNA clone 1519431 [2]: 2.36
- expression level of cDNA clone 1559756 [2]: 1.56
- expression level of cDNA clone 1619292 [2]: −4.3
- expression level of cDNA clone 1696224 [2]: 3.28
- expression level of cDNA clone 1711151 [2]: 3.05
- expression level of cDNA clone 1846209 [2]: 1.81
- expression level of cDNA clone 1930235 [2]: 3.25
- expression level of cDNA clone 1998269 [2]: 2.99
- expression level of cDNA clone 2055569 [2]: −3.33
- expression level of cDNA clone 2055867 [2]: −2.61
- expression level of cDNA clone 2123516 [2]: 3.89
- expression level of cDNA clone 2360580 [2]: −2.71
- expression level of cDNA clone 2446289 [2]: −2.15
- expression level of cDNA clone 2757583 [2]: 4.03
- expression level of cDNA clone 2769888 [2]: −2.01
- expression level of cDNA clone 2820337 [2]: 2.29
- expression level of cDNA clone 2884613 [2]: 2.46
- expression level of cDNA clone 2912637 [2]: −2.38
- expression level of cDNA clone 2921991 [2]: −5.21
- expression level of cDNA clone 2933775 [2]: 5.14
- expression level of cDNA clone 3225977 [2]: 2.89
- expression level of cDNA clone 3240708 [2]: 2.02
- expression level of cDNA clone 3381870 [2]: 2.62
- expression level of cDNA clone 3679667 [2]: −2.09
- expression level of cDNA clone 3815422 [2]: −3.78
- expression level of cDNA clone 4107126 [2]: 2.88

Structure (SMILES): C[C@H](N[C@@H](CCc1ccccc1)C(=O)O)C(=O)N1CCC[C@H]1C(=O)O [Enalaprilat, enalaprilat]
- plasma half-life ([1]; in vivo): about 11 hours
